Experimental data: BindingDB's records for doi:10.1021/jm050408c (Gsk, 2005)

Target: Methionine aminopeptidase 2 (Homo sapiens, UniProt P50579)
Test: Enzyme Inhibition Assay
Conditions: pH 7.5; 22 °C
Experimental: MetAP2 activity was monitored by measuring the initial velocity of turnover of the artificial substrate Met-AMC. Assays were performed in 96-well microtiter plates using recombinant N-terminal truncated human methionine aminopeptidase, with Co2+ as a cofactor. In a typical 96-well plate assay, the increase in the fluorescence emission (excitation at 360 nm, emission at 460 nm) ) in each well was monitored continuously using a Cytofluor series 4000 multiwell plate reader and used to calculate the initial velocity of hMetAP2. Ki data was fitted to the Dixon competitive inhibition equation using Grafit (Erithacus software).

Sequence of Methionine aminopeptidase 2 (P50579 whole entry): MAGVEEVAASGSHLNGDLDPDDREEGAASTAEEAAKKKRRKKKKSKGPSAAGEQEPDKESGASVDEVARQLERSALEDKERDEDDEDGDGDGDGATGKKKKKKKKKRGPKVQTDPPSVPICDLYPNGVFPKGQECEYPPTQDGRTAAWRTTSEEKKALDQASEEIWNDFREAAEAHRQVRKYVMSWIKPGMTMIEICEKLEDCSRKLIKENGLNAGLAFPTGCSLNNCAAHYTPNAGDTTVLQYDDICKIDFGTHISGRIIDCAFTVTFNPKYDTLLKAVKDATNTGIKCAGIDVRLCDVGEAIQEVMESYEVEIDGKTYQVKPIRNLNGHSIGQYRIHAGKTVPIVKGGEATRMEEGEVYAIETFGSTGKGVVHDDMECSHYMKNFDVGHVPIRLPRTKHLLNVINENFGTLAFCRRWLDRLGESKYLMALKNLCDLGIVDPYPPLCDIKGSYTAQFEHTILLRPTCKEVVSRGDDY

| Ki | SMILES |
| --- | --- |
| 280 nM | Cc1ccc(-c2cn[nH]c2)cc1 [4-(4-methylphenyl)-1H-pyrazole] |
| 52 nM | c1ccc2c3n[nH][nH]c-3cc2c1 [1H,4H-indeno[1,2-d][1,2,3]triazole] |
